From patent US12274688B2, “Drug-loaded mesoporous silica nanoparticle for prevention and treatment of brain cancers or brain metastases” (NANO TARGETING & THERAPY BIOPHARMA INC, priority 2022, dated 2025)

Columns and labels:
[1] = tested on: TMZ-resistant glioma cells (U87MG-R); test: Orthotopic TMZ-resistant brain tumor mouse model (survival, tumor size)
Procedure: TMZ-resistant glioma cells (U87MG-R) were cultured at 37° C. in a humidified 5% CO2 atmosphere in Dulbecco's Modified Eagle Medium (DMEM) supplemented with 10% fetal bovine serum and 100 ug/mL penicillin/streptomycin. NOD-SCID male mice (8-week-old) were purchased from BioLASCO Taiwan Co. Ltd. For intracranial transplantation, an experimental procedure was performed under sterile conditions. For TMZ-resistant glioblastoma transplantation, a skull burr hole was created in the right frontal brain area. Cells (2×10^5, or five microliters of TMZ-resistant glioma cell suspension (U87MG-R, 6×10^5 cells/5 μL) were injected into the cortex at a depth of 3 mm using stereotactic guidance and a microprocessor single syringe (Harvard Apparatus, Holliston, MA, USA).
(§1) The administration frequency was twice per week until the end of the study. DTX, CTX and PBS were intravenously (IV) injected and TMZ was intraperitoneally (IP) injected into mice. To assess overall survival, mice were monitored up to the point of spontaneous death or approaching moribund status.
Body weight and survival time of animals were monitored up to the point of spontaneous death.

[2] = Toxicity/tolerability in mice transplanted with TMZ-resistant brain tumors; conditions: for Survival of mice to the end of the testing period: 10 or 20 mg/kg IV with TMZ 10 mg/kg, testing period (15)/19 days; for Toxicity (body weight decrease, low survival rate): dose of 10 mg/kg or above IV, with TMZ 10 mg/kg IP
Source text: (§2) To evaluate the toxicity of DTX and CTX and the efficacy of direct administration of DTX and CTX on treating TMZ resistant brain tumors, 36 mice transplanted with TMZ-resistant brain tumors were used in the experiments, divided into six groups, each group having six mice; details of dosage are noted in Table 7 below:
as §1

[3] = mouse, in vivo, iv
Source text: as §2, §1

[4] = 10 mg/kg IV + TMZ 10 mg/kg IP, twice per week
[5] = 20 mg/kg IV + TMZ 10 mg/kg IP, twice per week
[6] = PBS IV + TMZ 10 mg/kg IP, twice per week

| Structure (SMILES) | Median Survival Time (days after 1st injection) [1, 4] [days] | Median Survival Time (days after implantation of tumor cells) [1, 4] [days] | Median Survival Time (days after 1st injection) [1, 5] [days] | Median Survival Time (days after implantation of tumor cells) [1, 5] [days] | Survival of mice to the end of the testing period [2] | Toxicity of direct administration ([2]; dose of 5 mg/kg or higher) | Toxicity (body weight decrease, low survival rate) [2] | Signs of toxicity [3] | Median Survival Time (days after 1st injection) [1, 6] [days] | Median Survival Time (days after implantation of tumor cells) [1, 6] [days] | Median Survival Time (days after implantation of tumor cells) ([1]; Table 9: PBS + TMZ (10 mg/kg)) | Median Survival Time (days after implantation of tumor cells) ([1]; Table 10: PBS + TMZ (10 mg/kg)) |
| --- | --- | --- | --- | --- | --- | --- | --- | --- | --- | --- | --- | --- |
| CO[C@H]1C(=O)[C@]2(C)[C@@H](OC)C[C@H]3OC[C@@]3(OC(C)=O)[C@H]2[C@H](OC(=O)c2ccccc2)[C@]2(O)C[C@H](OC(=O)[C@H](O)[C@@H](NC(=O)OC(C)(C)C)c3ccccc3)C(C)=C1C2(C)C [CTX, cabazitaxel] | 11 | 15 | 8 | 12 | all mice died before the end of the testing period | high toxicity | high toxicity |  |  |  |  |  |
| CC(=O)O[C@@]12CO[C@@H]1C[C@H](O)[C@@]1(C)C(=O)[C@H](O)C3=C(C)[C@@H](OC(=O)[C@H](O)[C@@H](NC(=O)OC(C)(C)C)c4ccccc4)C[C@@](O)([C@@H](OC(=O)c4ccccc4)[C@H]21)C3(C)C [DTX, docetaxel] | 15 | 19 | 11 | 15 | all mice died before the end of the testing period |  | high toxicity | immobility, interaction deficits, and more body weight loss |  |  |  |  |
| Cn1nnc2c(C(N)=O)ncn2c1=O [TMZ, temozolomide] |  |  |  |  |  |  |  |  | 23 | 27 | 27 [26.5] days | 27 [26.5] days |
